# Experimental data reported in publication PMC6934184, “Selective DNA-PKcs inhibition extends the therapeutic index of localized radiotherapy and chemotherapy” (The Journal of Clinical Investigation, 2019).
# Target: T1, KIT V559D T670I (Homo sapiens, UniProt P10721, T670I/V559D)
# T1 construct: purchased Thermo Fisher Scientific (Life Technologies) SelectScreen
# Experiment: SelectScreen LanthaScreen
# Type: binding
# Details: read-out: % displacement
# Summary of the method: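 NU5455 was profiled across the SelectScreen Broad panel of kinase activity and binding assays. Z'LYTE reactions such as CSF1R ran at apparent Km ATP, while the Adapta CAMK1 assay used ATP listed as 10. Values are given as percent.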
# T1 sequence (P10721 26-976 V559D/T670I): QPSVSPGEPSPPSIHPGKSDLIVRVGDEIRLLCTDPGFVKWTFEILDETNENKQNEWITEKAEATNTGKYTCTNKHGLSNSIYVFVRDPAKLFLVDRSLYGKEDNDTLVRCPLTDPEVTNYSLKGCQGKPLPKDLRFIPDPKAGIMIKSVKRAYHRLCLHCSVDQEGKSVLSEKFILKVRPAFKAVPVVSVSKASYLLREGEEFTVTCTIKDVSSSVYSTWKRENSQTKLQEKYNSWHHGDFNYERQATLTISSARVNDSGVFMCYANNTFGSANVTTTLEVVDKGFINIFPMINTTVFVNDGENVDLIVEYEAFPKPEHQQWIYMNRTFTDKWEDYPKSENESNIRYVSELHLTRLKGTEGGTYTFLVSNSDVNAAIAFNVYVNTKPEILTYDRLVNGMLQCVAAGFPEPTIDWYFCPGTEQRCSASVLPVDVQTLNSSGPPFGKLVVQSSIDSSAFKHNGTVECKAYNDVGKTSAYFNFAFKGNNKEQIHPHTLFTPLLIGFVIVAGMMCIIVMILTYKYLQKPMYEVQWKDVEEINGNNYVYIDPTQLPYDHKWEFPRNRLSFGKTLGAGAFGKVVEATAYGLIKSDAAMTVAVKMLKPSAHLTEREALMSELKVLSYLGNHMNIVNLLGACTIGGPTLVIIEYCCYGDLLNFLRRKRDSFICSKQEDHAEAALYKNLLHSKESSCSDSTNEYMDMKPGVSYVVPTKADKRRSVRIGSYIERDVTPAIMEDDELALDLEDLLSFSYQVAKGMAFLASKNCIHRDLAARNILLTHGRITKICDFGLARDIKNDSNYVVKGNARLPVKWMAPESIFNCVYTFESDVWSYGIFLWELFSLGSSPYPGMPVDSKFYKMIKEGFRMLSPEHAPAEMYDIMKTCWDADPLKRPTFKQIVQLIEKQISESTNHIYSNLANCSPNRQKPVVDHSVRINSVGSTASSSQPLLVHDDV
structure (smiles),measurement,value
CN(C(=O)CN1CCOCC1)c1ccc2sc3c(-c4cccc5c(=O)cc(N6CC7CCC(C6)O7)oc45)cccc3c2c1 [NU5455],inhibition at 1 µM,3.1%
